Experimental data: patent US20070128217A1 (priority 2003, published 2007)

Tests used:
[1] = system: recombinant human anti-SARS-CoV antibody 03-018; type: binding; design: Binding of antibody 03-018 to linear peptides of the N protein of SARS-CoV Urbani / Binding of antibody 03-018 to looped/cyclic peptides of the N protein of SARS-CoV Urbani: unit not given here
[2] = system: rabbit serum obtained by immunizing a rabbit with the SARS-CoV strain Frankfurt 1; type: binding; design: Binding of a rabbit serum to linear peptides / Binding of a rabbit serum to looped peptides / Rabbit serum linear peptides / Rabbit serum looped peptides / Binding of a rabbit serum to linear peptides of protein N of SARS-CoV Urbani (Rabbit serum linear peptides) / Binding of a rabbit serum to looped/cyclic peptides of protein N of SARS-CoV Urbani (Rabbit serum looped peptides): unit not given here
[3] = system: antibodies in sera from SARS patients (sera 1a, 1b, 2, 6, 37, 62, London, SARS-yellow, SARS-green); type: binding, human; design: Binding of serum 6 to linear peptides of protein X1 of SARS-CoV Urbani / Binding of serum 37 to linear peptides of protein X1 of SARS-CoV Urbani / Binding of serum 6 to looped/cyclic peptide (PEPSCAN-ELISA) / Binding of serum 37 to looped/cyclic peptide (PEPSCAN-ELISA) / Binding of serum 37 to looped/cyclic peptides of protein X1 of SARS-CoV Urbani / Binding of serum 6 to linear peptides of protein X2 / Binding of serum 37 to linear peptides of protein X2 / Binding of serum 37 to looped/cyclic peptides of protein X2 of SARS-CoV Urbani / Binding of serum 6 to linear peptides of protein M of SARS-CoV Urbani / Binding of serum 37 to linear peptides of protein M of SARS-CoV Urbani / Binding of serum 6 to looped/cyclic peptides of protein M of SARS-CoV Urbani / Binding of serum 37 to looped/cyclic peptides of protein M of SARS-CoV Urbani / Binding of serum 6 to linear peptides of protein X3 of SARS-CoV Urbani / Binding of serum 37 to linear peptides of protein X3 of SARS-CoV Urbani / Binding of serum 37 to looped/cyclic peptides of protein X3 of SARS-CoV Urbani / Binding of serum 6 to linear peptides of protein X4 of SARS-CoV Urbani / Binding of serum 37 to linear peptides of protein X4 of SARS-CoV Urbani / Binding of serum 37 to looped/cyclic peptides of protein X4 of SARS-CoV Urbani / Binding of serum 6 to linear peptides of protein X5 of SARS-CoV Urbani / Binding of serum 37 to linear peptides of protein X5 of SARS-CoV Urbani / Binding of serum 37 to looped/cyclic peptides of protein X5 of SARS-CoV Urbani / Binding of serum 6 to linear peptides of protein N of SARS-CoV Urbani / Binding of serum 37 to linear peptides of protein N of SARS-CoV Urbani / Binding of serum 6 to linear peptide (PEPSCAN-ELISA) / Binding of serum 1a to looped/cyclic peptides of protein N of SARS-CoV Urbani / Binding of serum 1b to looped/cyclic peptides of protein N of SARS-CoV Urbani / Binding of serum 2 to looped/cyclic peptides of protein N of SARS-CoV Urbani / Binding of serum 6 to looped/cyclic peptides of protein N of SARS-CoV Urbani / Binding of serum 37 to looped/cyclic peptides of protein N of SARS-CoV Urbani / Binding of serum 62 to looped/cyclic peptides of protein N of SARS-CoV Urbani / Binding of serum London to looped/cyclic peptides of protein N of SARS-CoV Urbani / Binding of serum SARS-green to looped/cyclic peptides of protein N of SARS-CoV Urbani: unit not given here
[4] = system: control sera (pooled serum of ten healthy LUMC hospital workers; commercial negative donor pooled serum from the Dutch bloodbank); type: binding, human; design: Binding of Control serum LUMC to linear peptides / Binding of Control serum Blood-bank to linear peptides / Binding of Control serum LUMC to looped peptides / Binding of Control Serum Blood-Bank to Looped peptides / Binding of Control serum LUMC to linear peptides of the protein M of SARS-CoV Urbani / Binding of Control serum Blood-bank to linear peptides of the protein M of SARS-CoV Urbani / Binding of Control serum LUMC to looped peptides of the protein M of SARS-CoV Urbani / Binding of Control Serum Blood-Bank to Looped peptides of the protein M of SARS-CoV Urbani: unit not given here

QASSRSSSRSRGNSR
Binding of antibody 03-018 to linear peptides of the N protein of SARS-CoV Urbani [1]: 0.1
Binding of antibody 03-018 to looped/cyclic peptides of the N protein of SARS-CoV Urbani [1]: 0.2
Binding of a rabbit serum to linear peptides of protein N of SARS-CoV Urbani (Rabbit serum linear peptides) [2]: 0.3
Binding of a rabbit serum to looped/cyclic peptides of protein N of SARS-CoV Urbani (Rabbit serum looped peptides) [2]: 1.1
Binding of serum 1a to linear peptide (PEPSCAN-ELISA) [3]: 0.2
Binding of serum 1a to looped/cyclic peptides of protein N of SARS-CoV Urbani [3]: 0.3
Binding of serum 1b to linear peptide (PEPSCAN-ELISA) [3]: 0.1
Binding of serum 1b to looped/cyclic peptides of protein N of SARS-CoV Urbani [3]: 0.2
Binding of serum 2 to linear peptide (PEPSCAN-ELISA) [3]: 0.3
Binding of serum 2 to looped/cyclic peptides of protein N of SARS-CoV Urbani [3]: 0.4
Binding of serum 6 to linear peptide (PEPSCAN-ELISA) [3]: 0.3
Binding of serum 6 to looped/cyclic peptides of protein N of SARS-CoV Urbani [3]: 0.3
Binding of serum 37 to linear peptide (PEPSCAN-ELISA) [3]: 0.6
Binding of serum 37 to looped/cyclic peptides of protein N of SARS-CoV Urbani [3]: 0.5
Binding of serum 62 to linear peptide (PEPSCAN-ELISA) [3]: 0.6
Binding of serum 62 to looped/cyclic peptides of protein N of SARS-CoV Urbani [3]: 0.4
Binding of serum London to linear peptide (PEPSCAN-ELISA) [3]: 0.5
Binding of serum London to looped/cyclic peptides of protein N of SARS-CoV Urbani [3]: 0.4
Binding of serum SARS-green to linear peptide (PEPSCAN-ELISA) [3]: 0.2
Binding of serum SARS-green to looped/cyclic peptides of protein N of SARS-CoV Urbani [3]: 0.1
Binding of serum SARS-yellow to linear peptide (PEPSCAN-ELISA) [3]: 0.6
Binding of serum SARS-yellow to looped/cyclic peptides of protein N of SARS-CoV Urbani [3]: 0.4
Binding of Control Serum Blood-Bank to Looped peptides [4]: 0.5
Binding of Control serum Blood-bank to linear peptides [4]: 0.7
Binding of Control serum LUMC to linear peptides [4]: 0.7
Binding of Control serum LUMC to looped peptides [4]: 0.5

QDLIRQGTDYKHWPQ
Binding of antibody 03-018 to linear peptides of the N protein of SARS-CoV Urbani [1]: 0.1
Binding of antibody 03-018 to looped/cyclic peptides of the N protein of SARS-CoV Urbani [1]: 0.2
Binding of a rabbit serum to linear peptides of protein N of SARS-CoV Urbani (Rabbit serum linear peptides) [2]: 0.1
Binding of a rabbit serum to looped/cyclic peptides of protein N of SARS-CoV Urbani (Rabbit serum looped peptides) [2]: 0.2
Binding of serum 1a to linear peptides of protein N of SARS-CoV Urbani [3]: 0.2
Binding of serum 1a to looped/cyclic peptides of protein N of SARS-CoV Urbani [3]: 0.3
Binding of serum 1b to linear peptides of protein N of SARS-CoV Urbani [3]: 0.1
Binding of serum 1b to looped/cyclic peptides of protein N of SARS-CoV Urbani [3]: 0.2
Binding of serum 2 to linear peptides of protein N of SARS-CoV Urbani [3]: 0.2
Binding of serum 2 to looped/cyclic peptides of protein N of SARS-CoV Urbani [3]: 0.3
Binding of serum 6 to linear peptides of protein N of SARS-CoV Urbani [3]: 0.2
Binding of serum 6 to looped/cyclic peptides of protein N of SARS-CoV Urbani [3]: 0.2
Binding of serum 37 to linear peptides of protein N of SARS-CoV Urbani [3]: 0.6
Binding of serum 37 to looped/cyclic peptides of protein N of SARS-CoV Urbani [3]: 0.5
Binding of serum 62 to linear peptides of protein N of SARS-CoV Urbani [3]: 0.5
Binding of serum 62 to looped/cyclic peptides of protein N of SARS-CoV Urbani [3]: 0.4
Binding of serum London to linear peptides of protein N of SARS-CoV Urbani [3]: 0.4
Binding of serum London to looped/cyclic peptides of protein N of SARS-CoV Urbani [3]: 0.4
Binding of serum SARS-green to linear peptides of protein N of SARS-CoV Urbani [3]: 0.2
Binding of serum SARS-green to looped/cyclic peptides of protein N of SARS-CoV Urbani [3]: 0.2
Binding of serum SARS-yellow to linear peptides of protein N of SARS-CoV Urbani [3]: 0.4
Binding of serum SARS-yellow to looped/cyclic peptides of protein N of SARS-CoV Urbani [3]: 0.3
Binding of Control Serum Blood-Bank to Looped peptides [4]: 0.6
Binding of Control serum Blood-bank to linear peptides [4]: 0.7
Binding of Control serum LUMC to linear peptides [4]: 0.6
Binding of Control serum LUMC to looped peptides [4]: 0.5

QFAPSASAFFGMSRI
Binding of antibody 03-018 to linear peptides of the N protein of SARS-CoV Urbani [1]: 0.1
Binding of antibody 03-018 to looped/cyclic peptides of the N protein of SARS-CoV Urbani [1]: 0.3
Binding of a rabbit serum to linear peptides of protein N of SARS-CoV Urbani (Rabbit serum linear peptides) [2]: 0.1
Binding of a rabbit serum to looped/cyclic peptides of protein N of SARS-CoV Urbani (Rabbit serum looped peptides) [2]: 0.4
Binding of serum 1a to linear peptides of protein N of SARS-CoV Urbani [3]: 0.2
Binding of serum 1a to looped/cyclic peptides of protein N of SARS-CoV Urbani [3]: 0.4
Binding of serum 1b to linear peptides of protein N of SARS-CoV Urbani [3]: 0.1
Binding of serum 1b to looped/cyclic peptides of protein N of SARS-CoV Urbani [3]: 0.2
Binding of serum 2 to linear peptides of protein N of SARS-CoV Urbani [3]: 0.1
Binding of serum 2 to looped/cyclic peptides of protein N of SARS-CoV Urbani [3]: 0.4
Binding of serum 6 to linear peptides of protein N of SARS-CoV Urbani [3]: 0.1
Binding of serum 6 to looped/cyclic peptides of protein N of SARS-CoV Urbani [3]: 0.2
Binding of serum 37 to linear peptides of protein N of SARS-CoV Urbani [3]: 0.4
Binding of serum 37 to looped/cyclic peptides of protein N of SARS-CoV Urbani [3]: 0.6
Binding of serum 62 to linear peptides of protein N of SARS-CoV Urbani [3]: 0.4
Binding of serum 62 to looped/cyclic peptides of protein N of SARS-CoV Urbani [3]: 0.7
Binding of serum London to linear peptides of protein N of SARS-CoV Urbani [3]: 0.4
Binding of serum London to looped/cyclic peptides of protein N of SARS-CoV Urbani [3]: 0.4
Binding of serum SARS-green to linear peptides of protein N of SARS-CoV Urbani [3]: 0.1
Binding of serum SARS-green to looped/cyclic peptides of protein N of SARS-CoV Urbani [3]: 0.5
Binding of serum SARS-yellow to linear peptides of protein N of SARS-CoV Urbani [3]: 0.5
Binding of serum SARS-yellow to looped/cyclic peptides of protein N of SARS-CoV Urbani [3]: 0.3
Control Serum Blood-Bank Looped peptides [4]: 0.6
Control serum Blood-bank linear peptides [4]: 0.7
Control serum LUMC linear peptides [4]: 0.5
Control serum LUMC looped peptides [4]: 0.6

QGLPNNTASWFTALT
Binding of antibody 03-018 to linear peptides of the N protein of SARS-CoV Urbani [1]: 0.1
Binding of antibody 03-018 to looped/cyclic peptides of the N protein of SARS-CoV Urbani [1]: 0.3
Binding of a rabbit serum to linear peptides of protein N of SARS-CoV Urbani (Rabbit serum linear peptides) [2]: 0.1
Binding of a rabbit serum to looped/cyclic peptides of protein N of SARS-CoV Urbani (Rabbit serum looped peptides) [2]: 0.6
Binding of serum 1a to linear peptides of protein N of SARS-CoV Urbani [3]: 0.2
Binding of serum 1a to looped/cyclic peptides of protein N of SARS-CoV Urbani [3]: 0.4
Binding of serum 1b to linear peptides of protein N of SARS-CoV Urbani [3]: 0.1
Binding of serum 1b to looped/cyclic peptides of protein N of SARS-CoV Urbani [3]: 0.3
Binding of serum 2 to linear peptides of protein N of SARS-CoV Urbani [3]: 0.2
Binding of serum 2 to looped/cyclic peptides of protein N of SARS-CoV Urbani [3]: 0.5
Binding of serum 6 to linear peptides of protein N of SARS-CoV Urbani [3]: 0.1
Binding of serum 6 to looped/cyclic peptides of protein N of SARS-CoV Urbani [3]: 0.3
Binding of serum 37 to linear peptides of protein N of SARS-CoV Urbani [3]: 0.6
Binding of serum 37 to looped/cyclic peptides of protein N of SARS-CoV Urbani [3]: 0.7
Binding of serum 62 to linear peptides of protein N of SARS-CoV Urbani [3]: 0.7
Binding of serum 62 to looped/cyclic peptides of protein N of SARS-CoV Urbani [3]: 0.7
Binding of serum London to linear peptides of protein N of SARS-CoV Urbani [3]: 0.4
Binding of serum London to looped/cyclic peptides of protein N of SARS-CoV Urbani [3]: 0.5
Binding of serum SARS-green to linear peptides of protein N of SARS-CoV Urbani [3]: 0.2
Binding of serum SARS-green to looped/cyclic peptides of protein N of SARS-CoV Urbani [3]: 0.6
Binding of serum SARS-yellow to linear peptides of protein N of SARS-CoV Urbani [3]: 0.6
Binding of serum SARS-yellow to looped/cyclic peptides of protein N of SARS-CoV Urbani [3]: 0.7
Binding of Control Serum Blood-Bank to Looped peptides [4]: 0.8
Binding of Control serum Blood-bank to linear peptides [4]: 0.6
Binding of Control serum LUMC to linear peptides [4]: 0.7
Binding of Control serum LUMC to looped peptides [4]: 0.8
